According to patent US20230365589A1, “NOVEL AMINE DERIVATIVES” (Sumitomo Pharma Co., Ltd., priority 2020, published 2023):
Read-outs that look alike come from different tables or passages of the source.

Tests used:
Format in all cases: biochemical
DYRK1A = target: T1, DYRK1A (Homo sapiens, UniProt Q13627); test: Inhibition test on activity of DYRK family, mobility shift assay (MSA): DYRK1A
T1 construct: purchased Carna Biosciences, Inc. 04-130
Procedure: (§1) [Inhibition Test on Activity of DYRK Family (DYRK1A, DYRK1B, DYRK2, and DYRK3)]
(§2) The kinase activity was measured by mobility shift assay (MSA) method using QuickScout Screening Assist™ MSA (commercially available kit manufactured by Carna Biosciences, Inc.). The substrate of the kinase reaction used was an FITC-labeled DYRKtide peptide included in the kit. An assay buffer [20 mM HEPES, 0.01% Triton X-100™, 2 mM dithiothreitol, pH 7.5]was used to create a substrate mixture solution with a substrate (4 μM), MgCl2(20 mM), and ATP (DYRK1A: 100 μM; DYRK1B: 200 μM; DYRK2: 40 μM; and DYRK3: 20 μM). In addition, kinases (DYRK1A: manufactured by Carna Biosciences, Inc., Cat. No. 04-130; DYRK1B: manufactured by Carna Biosciences, Inc., Cat. No. 04-131; DYRK2; manufactured by Carna Biosciences, Inc., Cat. No. 04-132; and DYRK3; manufactured by Carna Biosciences, Inc., Cat. No. 04-133) were diluted with the assay buffer to prepare enzyme solutions (DYRK1A: 0.2 ng/μL; DYRK1B: 0.08 ng/μL; DYRK2: 0.04 ng/μL; and DYRK3: 0.25 ng/μL). The 10 mM solution of the test compound in DMSO was further diluted with DMSO to 10 levels of the concentration (0.00003 mM, 0.0001 mM, 0.0003 mM, 0.001 mM, 0.003 mM, 0.01 mM, 0.03 mM, 0.1 mM, 0.3 mM, and 1 mM), each of which was subjected to 25-fold dilution with the assay buffer to obtain a drug solution (4% DMSO solution). 5 μL of the drug solution or a control solution (4% DMSO-assay buffer), 5 μL of the substrate mixture solution, and 10 μL of the enzyme solution were mixed in the wells of a polypropylene 384-well plate and allowed to react at room temperature for 1 hour, and then the reaction was quenched by adding 60 μL of the termination buffer included in the kit. Subsequently, the quantities of the substrates (S) and the phosphorylated substrate (P) in the reaction solution were measured using LabChip EZ Reader II system (manufactured by Caliper Life Sciences) according to the protocol of the assay kit.
(§3) The heights of the peaks of the “substrate” and the “phosphorylated substrate” were expressed as S and P, respectively, and a blank containing the assay buffer instead of the enzyme solution was also measured.
(§4) The inhibition rate (%) of the test compound was calculated according to the following equation:
(§5) Inhibition rate (%)=(1−(C−A)/(B−A))×100 • wherein, A, B, and C represent P/(P+S) of the blank well, P/(P+S) of the control solution well, and P/(P+S) of the compound-containing well, respectively.
(§6) The IC50 value was calculated via a regression analysis of the inhibition rate and the test compound concentration (logarithmic value).

DYRK3 = target: T2, DYRK3 (Homo sapiens, UniProt O43781); test: Inhibition test on activity of DYRK family, mobility shift assay (MSA): DYRK3
T2 construct: purchased Carna Biosciences, Inc. 04-133
T2 sequence (O43781 1-568 isoform O43781-2): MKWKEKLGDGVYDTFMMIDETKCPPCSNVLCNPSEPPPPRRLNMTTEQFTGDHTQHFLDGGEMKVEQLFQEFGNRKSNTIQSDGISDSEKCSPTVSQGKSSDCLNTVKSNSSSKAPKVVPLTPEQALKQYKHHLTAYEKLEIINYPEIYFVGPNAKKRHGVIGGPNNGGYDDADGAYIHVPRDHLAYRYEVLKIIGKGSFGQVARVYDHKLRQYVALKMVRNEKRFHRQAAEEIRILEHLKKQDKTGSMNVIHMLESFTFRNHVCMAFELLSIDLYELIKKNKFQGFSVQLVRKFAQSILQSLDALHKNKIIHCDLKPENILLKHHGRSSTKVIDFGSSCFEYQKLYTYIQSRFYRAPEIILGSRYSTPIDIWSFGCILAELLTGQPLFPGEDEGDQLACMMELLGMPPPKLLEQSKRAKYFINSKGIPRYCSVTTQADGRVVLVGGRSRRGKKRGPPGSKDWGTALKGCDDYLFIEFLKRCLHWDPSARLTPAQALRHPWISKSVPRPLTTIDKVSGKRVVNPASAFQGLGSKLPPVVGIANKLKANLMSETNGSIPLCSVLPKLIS
Procedure: as §1, §2, §3, §4, §5, §6
(§7) The inhibiting activities of representative compounds of the present invention are shown against DYRK1A, DYRK1B, DYRK2, and DYRK3 in Tables.

DYRK2 = target: T3, DYRK2 (Homo sapiens, UniProt Q92630); test: Inhibition test on activity of DYRK family, mobility shift assay (MSA): DYRK2
T3 construct: purchased Carna Biosciences, Inc. 04-132
T3 sequence (Q92630 74-601 limits assumed): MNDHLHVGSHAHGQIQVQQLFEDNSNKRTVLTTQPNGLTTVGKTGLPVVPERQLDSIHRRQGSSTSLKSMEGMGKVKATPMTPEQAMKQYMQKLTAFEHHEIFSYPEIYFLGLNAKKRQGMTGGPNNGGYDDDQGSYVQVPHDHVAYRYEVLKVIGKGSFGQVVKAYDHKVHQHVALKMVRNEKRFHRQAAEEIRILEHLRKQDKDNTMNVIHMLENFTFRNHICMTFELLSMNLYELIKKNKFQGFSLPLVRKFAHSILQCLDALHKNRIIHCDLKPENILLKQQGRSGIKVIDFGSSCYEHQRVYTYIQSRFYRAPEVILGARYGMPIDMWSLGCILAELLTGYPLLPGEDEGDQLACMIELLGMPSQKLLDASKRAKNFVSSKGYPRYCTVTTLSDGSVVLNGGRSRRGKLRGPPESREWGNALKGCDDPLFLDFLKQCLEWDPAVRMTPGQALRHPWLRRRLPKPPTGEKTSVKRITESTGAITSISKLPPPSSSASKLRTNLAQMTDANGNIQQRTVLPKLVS
Procedure: as §1, §2, §3, §4, §5, §6, §7

[1] = read-out: Inhibitory activity DYRK 1A
[2] = read-out: Inhibitory activity DYRK 3
[3] = read-out: Inhibitory activity DYRK 2
[4] = MSA, FITC-labeled DYRKtide peptide, ATP 100 μM, read-out: Inhibitory activity DYRK 1A (IC50 class)
[5] = MSA, FITC-labeled DYRKtide peptide, ATP 20 μM, read-out: Inhibitory activity DYRK 3 (IC50 class)
[6] = MSA, FITC-labeled DYRKtide peptide, ATP 40 μM, read-out: Inhibitory activity DYRK 2 (IC50 class)

Row | SMILES | IC50 (DYRK1A; [1]) [nM] | IC50 (DYRK3; [2]) [nM] | IC50 (DYRK2; [3]) [nM] | IC50 (DYRK1A; [4]) [nM] | IC50 (DYRK3; [5]) [nM] | IC50 (DYRK2; [6]) [nM]
1 | CO[C@H]1C[C@@H]2[C@H](CO1)NC(=O)N2c1nc2c3c(ccc2s1)OCC3 [Example 129, (3aR,6R,7aR)-1-(7,8-dihydrofuro[3,2-e][1,3]benzothiazol-2-yl)-6-methoxyhexahydropyrano[3,4-d]imidazol-2(3H)-one] | 10 to 100 | 100 to 1000 | 100 to 1000 |  |  | 
2 | N#C[C@H]1C[C@@H]2[C@H](CO1)NC(=O)N2c1nc2c3c(ccc2s1)OCC3 [Example 127, (3aR,6R,7aR)-1-(7,8-dihydrofuro[3,2-e][1,3]benzothiazol-2-yl)-2-oxooctahydropyrano[3,4-d]imidazole-6-carbonitrile] | < 10 | 100 to 1000 | 100 to 1000 |  |  | 
3 | CN1C[C@@H]2NC(=O)N(c3nc4c5c(ccc4s3)OCC5)[C@@H]2[C@@H](F)C1 [Example 74] |  |  |  | 100 to 1000 | 100 to 1000 | ≥ 1000
4 | C#CCN1CC[C@@H]2NC(=O)N(c3nc4c5c(ccc4s3)OCC5)[C@@H]2C1 (single isomer, unassigned) [Example 114] | < 10 | 100 to 1000 | 100 to 1000 |  |  | 
5 | O=C1N[C@H]2COCCC[C@H]2N1c1nc2c3c(ccc2s1)OCCO3 [Example 135, (3aR,8aR)-1-(7,8-dihydro[1,4]dioxino[2,3-e][1,3]benzothiazol-2-yl)hexahydro-1H-oxepino[3,4-d]imidazol-2(3H)-one] |  |  |  | 10 to 100 | 100 to 1000 | 100 to 1000
6 | CCN1CCC2C(C1)NC(=O)N2c1nc2c3c(ccc2s1)OCC3 (stereo not drawn) [Example 12] |  |  |  | 10 to 100 | 100 to 1000 | 100 to 1000
7 | O=C1N[C@H]2CCCNC[C@H]2N1c1nc2c3c(ccc2s1)OCC3 [Example 4] |  |  |  | 100 to 1000 | 100 to 1000 | ≥ 1000
8 | O=C1N[C@@H]2COCC[C@H]2N1c1nc2c3c(ccc2s1)OCC3 [Example 126] | 100 to 1000 | 100 to 1000 | 100 to 1000 |  |  | 
9 | O=C1N[C@H]2COC(F)C[C@H]2N1c1nc2c3c(ccc2s1)OCC3 (stereo partly drawn) [Example 151, (3aR,7aR)-1-(7,8-Dihydrofuro[3,2-e][1,3]benzothiazol-2-yl)-6-fluorohexahydropyrano[3,4-d]imidazol-2(3H)-one] |  |  |  | < 10 | 10 to 100 | 100 to 1000
10 | O=C1NC2CCN(C3CC3)CC2N1c1nc2c3c(ccc2s1)OCO3 (stereo not drawn) [Example 32] |  |  |  | < 10 | ≥ 1000 | ≥ 1000
11 | CN1CCC[C@@H]2NC(=O)N(c3nc4c5c(ccc4s3)OCO5)[C@@H]2C1 (racemic) [Example 85, rac-(3aR,8aS)-3-(2H-[1,3]dioxolo[4,5-e][1,3]benzothiazol-7-yl)-5-methyloctahydroimidazo[4,5-c]azepin-2(1H)-one] |  |  |  | 10 to 100 | ≥ 1000 | ≥ 1000
12 | CC(C)N1CC2NC(=O)N(c3nc4c5c(ccc4s3)OCC5)C2C1 (stereo not drawn) [Example 16] |  |  |  | 100 to 1000 | ≥ 1000 | ≥ 1000
13 | N#C[C@H]1C[C@H]2NC(=O)N(c3nc4c5c(ccc4s3)OCO5)[C@H]2CO1 [Example 132] | ≥ 1000 | ≥ 1000 | ≥ 1000 |  |  | 
14 | O=C1N[C@H]2COCC[C@H]2N1c1nc2c3c(ccc2s1)OCC3 (racemic) [Example 121, rac-(3aR,7aR)-1-(7,8-dihydrofuro[3,2-e][1,3]benzothiazol-2-yl)hexahydropyrano[3,4-d]imidazol-2(3H)-one] | 10 to 100 | 100 to 1000 | 100 to 1000 |  |  | 
15 | O=C1NC2CNCCC2N1c1nc2c3c(ccc2s1)OCC3 (stereo not drawn) [Example 2] |  |  |  | 10 to 100 | 10 to 100 | 100 to 1000
16 | CN1C[C@@H]2[C@H](CC13CC3)NC(=O)N2c1nc2c3c(ccc2s1)OCC3 [Example 90] |  |  |  | 10 to 100 | 100 to 1000 | 100 to 1000

More lines, now with the values ahead:

Row | IC50 (DYRK1A; [1]) [nM] | IC50 (DYRK3; [2]) [nM] | IC50 (DYRK2; [3]) [nM] | IC50 (DYRK1A; [4]) [nM] | IC50 (DYRK3; [5]) [nM] | IC50 (DYRK2; [6]) [nM] | SMILES
17 |  |  |  | 10 to 100 | ≥ 1000 | ≥ 1000 | O=C1N[C@H]2CCN(C3COC3)C[C@H]2N1c1nc2c3c(ccc2s1)OCO3 (racemic) [Example 81, rac-(3aR,7aS)-3-(2H-[1,3]dioxolo[4,5-e][1,3]benzothiazol-7-yl)-5-(oxetan-3-yl)octahydro-2H-imidazo[4,5-c]pyridin-2-one]
18 |  |  |  | 10 to 100 | 100 to 1000 | 100 to 1000 | O=C1N[C@H]2COC(O)C[C@H]2N1c1nc2c3c(ccc2s1)OCC3 (stereo partly drawn) [Example 150, (3aR,7aR)-1-(7,8-Dihydrofuro[3,2-e][1,3]benzothiazol-2-yl)-6-hydroxyhexahydropyrano[3,4-d]imidazol-2(3H)-one]
19 | < 10 | 100 to 1000 | ≥ 1000 |  |  |  | N#CCN1CC[C@@H]2NC(=O)N(c3nc4c5c(ccc4s3)OCC5)[C@@H]2C1 (single isomer, unassigned) [Example 112]
20 |  |  |  | < 10 | 100 to 1000 | 100 to 1000 | COC[C@@H]1[C@H](C)NC(=O)N1c1nc2c3c(ccc2s1)OCC3 [Example 44, (4S,5S)-1-(7,8-dihydrofuro[3,2-e][1,3]benzothiazol-2-yl)-5-(methoxymethyl)-4-methylimidazolidin-2-one]
21 | 10 to 100 | ≥ 1000 | ≥ 1000 |  |  |  | C[C@@H]1NC(=O)N(c2nc3c4c(ccc3s2)OCC4)[C@@H]1CN1CCC(F)(F)C1 [Example 117, (4S,5R)-5-[(3,3-difluoropyrrolidin-1-yl)methyl]-1-(7,8-dihydrofuro[3,2-e][1,3]benzothiazol-2-yl)-4-methylimidazolidin-2-one]
22 |  |  |  | 100 to 1000 | 100 to 1000 | ≥ 1000 | O=C1N[C@H]2CNC3(CC3)C[C@H]2N1c1nc2c3c(ccc2s1)OCC3 [Example 56]
23 |  |  |  | 100 to 1000 | ≥ 1000 | ≥ 1000 | O=C1N[C@@H]2C[C@H](CO)OC[C@@H]2N1c1nc2c3c(ccc2s1)OCC3 [Example 145]
24 |  |  |  | 100 to 1000 | ≥ 1000 | 100 to 1000 | O=C1N[C@H]2CN(C3CC3)CC[C@H]2N1c1nc2c3c(ccc2s1)OCO3 [Example 87]
